Literature values in patent US20130225560A1, “Treatment of Cognitive Disorders with Certain Alpha-7 Nicotinic Acid Receptor Agonists in Combination with Acetylcholinesterase Inhibitors” (priority 2010, published 2013).

Experiments:
alpha-7 receptor [1] = biological target: T1, alpha-7 receptor (Homo sapiens, UniProt P36544)
[2] = test system: other nicotinic receptors
[3] = test system: murine model that exhibits aspects of schizophrenia; details: alone and in combination with clozapine; Hauser et al. 2009
alpha-7 receptor [4] = biological target: T1, alpha-7 receptor; remark: listed apart in the source

T1 sequence (P36544 23-502): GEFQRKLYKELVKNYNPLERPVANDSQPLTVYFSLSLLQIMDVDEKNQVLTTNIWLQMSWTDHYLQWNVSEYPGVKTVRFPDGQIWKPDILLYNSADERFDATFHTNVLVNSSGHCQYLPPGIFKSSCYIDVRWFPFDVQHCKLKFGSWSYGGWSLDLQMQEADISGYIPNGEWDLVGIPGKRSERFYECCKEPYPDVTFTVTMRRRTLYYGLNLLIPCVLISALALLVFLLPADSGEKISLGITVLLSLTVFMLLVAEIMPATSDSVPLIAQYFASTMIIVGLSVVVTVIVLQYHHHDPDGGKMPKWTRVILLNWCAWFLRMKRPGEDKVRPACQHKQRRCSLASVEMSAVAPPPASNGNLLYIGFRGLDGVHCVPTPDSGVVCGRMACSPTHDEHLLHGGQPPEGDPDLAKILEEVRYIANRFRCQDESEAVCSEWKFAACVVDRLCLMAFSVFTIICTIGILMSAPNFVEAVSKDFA

What does the source list for `O=C(NC1C2CCN(CC2)C1Cc1cccnc1)c1cc2ccccc2o1` (centres unmarked) [TC-5619, N-[2-(pyridin-3-ylmethyl)-1-azabicyclo[2.2.2]oct-3-yl]-1-benzofuran-2-carboxamide]?
agonist activity at the alpha-7 receptor (alpha-7 receptor [1]): full agonist; activity at other nicotinic receptors [2]: little or no activity; impaired pre-pulse inhibition (PPI), models positive symptoms [3]: correct impaired pre-pulse inhibition (PPI); impaired social behavior, models negative symptoms [3]: correct impaired pre-pulse inhibition (PPI) and social behavior; affinity for the alpha-7 receptor (alpha-7 receptor [4]): very high affinity
